Data published in the NIST ThermoML archive (doi:10.1016/j.tca.2018.07.003).
± gives the expanded uncertainty stated by the source.

What was measured:
[1] = 295 K; 77 kPa; Liquid; transient hot wire
[2] = wn = mass fraction of the nth substance listed; settings: 295 K, 77 kPa, Liquid, transient hot wire
[3] = heat capacity at constant pressure per volume; wn = mass fraction of the nth substance listed; settings: 295 K, 77 kPa, Liquid, From thermal conductivity and thermal effusivity measured separately

OCCO [1,2-ethanediol]
thermal conductivity [1]: 0.254 ± 0.01 W/m/K

CC(C)CC(C)(C)C [2,2,4-trimethylpentane]
thermal conductivity [1]: 0.096 ± 0.004 W/m/K

CC(C)CC(C)(C)C [2,2,4-trimethylpentane] + CCCCCCC
thermal conductivity ([2]; w1 = 0.2): 0.116 ± 0.004 W/m/K
thermal conductivity ([2]; w1 = 0.4): 0.113 ± 0.004 W/m/K
thermal conductivity ([2]; w1 = 0.6): 0.107 ± 0.004 W/m/K
thermal conductivity ([2]; w1 = 0.8): 0.104 ± 0.004 W/m/K
thermal conductivity ([2]; w1 = 1): 0.096 ± 0.004 W/m/K
heat capacity ([3]; w1 = 0.2): 1390000 ± 90000 J/K/m3
heat capacity ([3]; w1 = 0.4): 1310000 ± 90000 J/K/m3
heat capacity ([3]; w1 = 0.6): 1310000 ± 80000 J/K/m3
heat capacity ([3]; w1 = 0.8): 1290000 ± 80000 J/K/m3
heat capacity ([3]; w1 = 1): 1340000 ± 90000 J/K/m3

OCC(O)CO [glycerol]
thermal conductivity [1]: 0.289 ± 0.01 W/m/K

CCCCCCC [heptane]
thermal conductivity [1]: 0.119 ± 0.004 W/m/K

CCCCCCC [heptane] + CC(C)CC(C)(C)C
thermal conductivity ([2]; w2 = 0): 0.119 ± 0.004 W/m/K
heat capacity ([3]; w2 = 0): 1480000 ± 100000 J/K/m3

CO [methanol]
thermal conductivity [1]: 0.208 ± 0.008 W/m/K

O [water]
thermal conductivity [1]: 0.6 ± 0.02 W/m/K
